Experimental data published in ChEMBL document CHEMBL1130114 (J Med Chem, 1997).

Legend:
Assay in all cases: biochemical
[1] = target: Adenosine receptor A2a (Homo sapiens, UniProt P29274)
Description: Binding affinity for HA-tagged wild type human Adenosine A2A receptor (WT) using [3H]CGS-21680 as radioligand expressed in COS-7 cells

[2] = target: Adenosine receptor A2a (Homo sapiens, UniProt P29274, V84L)
[3] = target: Adenosine receptor A2a (Homo sapiens, UniProt P29274, H250N)
Adenosine receptor A2a (Homo sapiens, UniProt P29274, H250N), sequence (P29274 whole entry H250N): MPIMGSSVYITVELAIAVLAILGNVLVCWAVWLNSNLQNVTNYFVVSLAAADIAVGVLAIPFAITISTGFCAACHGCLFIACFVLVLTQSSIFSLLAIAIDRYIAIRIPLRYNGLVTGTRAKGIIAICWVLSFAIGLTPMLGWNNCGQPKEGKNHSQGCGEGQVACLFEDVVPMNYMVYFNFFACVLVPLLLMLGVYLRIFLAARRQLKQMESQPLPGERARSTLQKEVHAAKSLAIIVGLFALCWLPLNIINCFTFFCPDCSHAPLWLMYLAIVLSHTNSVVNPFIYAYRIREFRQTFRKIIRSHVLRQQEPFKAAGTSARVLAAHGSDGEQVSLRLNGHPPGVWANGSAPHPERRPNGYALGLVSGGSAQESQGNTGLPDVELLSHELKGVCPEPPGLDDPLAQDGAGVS

Adenosine receptor A2a (Homo sapiens, UniProt P29274, V84L), sequence (P29274 whole entry V84L): as the sequence (P29274 whole entry H250N) above, with V84L, N250H counted along it
Adenosine receptor A2a (Homo sapiens, UniProt P29274), sequence (P29274 whole entry): as the sequence (P29274 whole entry H250N) above, with N250H counted along it

Row | Compound | Ki [1] | Ki [2] | Ki [3]
1 | COc1cc(OC)cc(C(CNc2ncnc3c2ncn3[C@@H]2O[C@H](CO)[C@@H](O)[C@H]2O)c2ccccc2C)c1 (stereo not given in full) | 0.0381 µM | 0.0189 µM | 0.0359 µM
2 | CCOC(=O)c1sc(SCc2ccccc2)c2c1CCCC2=O | 106 µM | 72.6 µM | 54.3 µM
3 | N=C(N)NC(=O)c1nc(Cl)c(N)nc1N [AMILORIDE] | 12 µM | 11.6 µM | 3.28 µM
4 | O=c1c(O)c(-c2ccccc2)oc2cc(O)cc(O)c12 [GALANGIN] | 16.7 µM | 18.1 µM | 33 µM
5 | COC(=O)C1=C(C)NC(C)=C(C(=O)OC)C1c1ccccc1[N+](=O)[O-] [NIFEDIPINE] | 244 µM | 22.2 µM | 22.2 µM
